Reference: patent US9549902B2, “Transdermal patch” (BOUTY S.P.A., priority 2005, dated 2017)

Columns and labels:
[1] = In vitro nitroglycerin permeation across mouse skin in Franz diffusion cells; assay type: in vitro ADME
Protocol: (§1) With the purpose of analysing the effect of sorbitan monooleate on nitroglycerin permeation kinetics, permeation of nitroglycerin from transdermal patches containing different concentrations of sorbitan monooleate was measured across mouse skin and human skin in Franz diffusion cells (produced by Hanson-Research).
(§2) The test was undertaken as described in the Italian Official Pharmacopoeia XI ed. and the European Pharmacopoeia 4th ed.
The permeation studies were conducted using Franz diffusion cells modified with an aperture 15 mm in diameter (membrane surface area 1.766 cm^2) and 7 ml cell volume. A phosphate buffer at pH 7 maintained under constant agitation was used as receptor fluid within the cell. […]
Within an hour of removal from the animal the skin samples were placed over the aperture of the cells to form a membrane and the transdermal patches to be analysed were each placed over a membrane and fastened with clips.
At determined intervals 300 μl of receptor solution were withdrawn and replaced each time with an equivalent volume of phosphate buffer.
The quantity of nitroglycerin in each sample was determined by means of HPLC analysis, using a 50:50 methanol/water mixture as mobile phase.
The results obtained for each patch were analyzed statistically using the t-test for independent samples. […]

[2] = In vitro nitroglycerin permeation across human skin (SCE membranes) in Franz diffusion cells; assay type: in vitro ADME
Protocol: as §1, §2
Samples of abdominal skin were obtained from the same donor by means of a surgical procedure.
Membranes consisting of the stratum corneum and epidermis (SCE membranes) were prepared by immersing the skin into distilled water at 60° C.±1° C. for one minute followed by their removal from the dermis. The membranes were dried in a dryer at about 25% ambient humidity, wrapped in aluminium sheets and maintained at a temperature of about −20° C.±1° C. until required. Dried membrane samples were rehydrated at ambient temperature by immersing in a saline solution for 16 hours. […]
The results obtained were analysed statistically using the t-test for independent samples.
The steady-state flux was then determined for each patch by linear regression of the cumulative quantity of drug permeated across the skin (μg/cm^2) as a function of time (h). […]

Action as absorption enhancer [1]: does not act as an absorption enhancer
Action as absorption enhancer [2]: does not act as an absorption enhancer
Substance: sorbitan monooleate
